Data reported in ChEMBL document CHEMBL2331210, “New 2-benzylsulfanyl-nicotinic acid based 1,3,4-oxadiazoles: their synthesis and biological evaluation” (2013).
Values after ≈ are worked out from the molar mass of the structure shown.

Assays:
[1] = test system: SF-268; test: Antitumor activity against human SF268 cells assessed as cell growth at 0.1 uM; type: functional; settings: read-out: Activity
[2] = test system: PC-3; test: Antitumor activity against human PC3 cells assessed as cell growth at 0.1 uM; type: functional; settings: read-out: Activity
[3] = test system: SF-295; test: Antitumor activity against human SF295 cells assessed as cell growth at 0.1 uM; type: functional; settings: read-out: Activity
[4] = test system: OVCAR-3; test: Antitumor activity against human OVCAR3 cells assessed as cell growth at 0.1 uM; type: functional; settings: read-out: Activity
[5] = test system: T47D; test: Antitumor activity against human T47D cells assessed as cell growth at 0.1 uM; type: functional; settings: read-out: Activity
[6] = test system: MOLT-4; test: Antitumor activity against human MOLT4 cells assessed as cell growth at 0.1 uM; type: functional; settings: read-out: Activity
[7] = test system: Malme-3M; test: Antitumor activity against human MALME-3M cells assessed as cell growth at 0.1 uM; type: functional; settings: read-out: Activity
[8] = test system: Aspergillus niger; test: Antimicrobial activity against Aspergillus niger MTCC 282 assessed as growth inhibition measured after overnight incubation by broth dilution method; type: functional
[9] = test system: TK-10; test: Antitumor activity against human TK10 cells assessed as cell growth at 0.1 uM; type: functional; settings: read-out: Activity
[10] = test system: A498; test: Antitumor activity against human A498 cells assessed as cell growth at 0.1 uM; type: functional; settings: read-out: Activity
[11] = Antitumor activity against human HCC2998 cells assessed as cell growth at 0.1 uM; type: functional; settings: HCC 2998, read-out: Activity
[12] = test system: OVCAR-8; test: Antitumor activity against human OVCAR8 cells assessed as cell growth at 0.1 uM; type: functional; settings: read-out: Activity
[13] = test system: IGROV-1; test: Antitumor activity against human IGROV1 cells assessed as cell growth at 0.1 uM; type: functional; settings: read-out: Activity
[14] = test system: SNB-19; test: Antitumor activity against human SNB19 cells assessed as cell growth at 0.1 uM; type: functional; settings: read-out: Activity
[15] = test system: Mycobacterium tuberculosis; test: Antitubercular activity against Mycobacterium tuberculosis H37Rv assessed as growth inhibition after 12 to 28 days by L.J. agar MIC method; type: functional; settings: for MIC: Mycobacterium tuberculosis, H37Rv
[16] = test system: Pseudomonas aeruginosa; test: Antimicrobial activity against Pseudomonas aeruginosa MTCC 2488 assessed as growth inhibition measured after overnight incubation by broth dilution method; type: functional
[17] = test system: UACC-257; test: Antitumor activity against human UACC257 cells assessed as cell growth at 0.1 uM; type: functional; settings: read-out: Activity
[18] = test system: NCI-H460; test: Antitumor activity against human NCI-H460 cells assessed as cell growth at 0.1 uM; type: functional; settings: read-out: Activity
[19] = test system: SK-MEL-5; test: Antitumor activity against human SK-MEL-5 cells assessed as cell growth at 0.1 uM; type: functional; settings: read-out: Activity
[20] = test system: CCRF-CEM; test: Antitumor activity against human CCRF-CEM cells assessed as cell growth at 0.1 uM; type: functional; settings: read-out: Activity
[21] = test system: SR; test: Antitumor activity against human SR cells assessed as cell growth at 0.1 uM; type: functional; settings: read-out: Activity
[22] = test system: MCF7; test: Antitumor activity against human MCF7 cells assessed as cell growth at 0.1 uM; type: functional; settings: read-out: Activity
[23] = test system: M14; test: Antitumor activity against human M14 cells assessed as cell growth at 0.1 uM; type: functional; settings: read-out: Activity
[24] = test system: MDA-MB-231; test: Antitumor activity against human MDA-MB-231/ATCC cells assessed as cell growth at 0.1 uM; type: functional; settings: read-out: Activity
[25] = test system: SN12C; test: Antitumor activity against human SN12C cells assessed as cell growth at 0.1 uM; type: functional; settings: read-out: Activity
[26] = test system: HCT-116; test: Antitumor activity against human HCT116 cells assessed as cell growth at 0.1 uM; type: functional; settings: read-out: Activity
[27] = test system: OVCAR-5; test: Antitumor activity against human OVCAR5 cells assessed as cell growth at 0.1 uM; type: functional; settings: read-out: Activity
[28] = test system: OVCAR-4; test: Antitumor activity against human OVCAR4 cells assessed as cell growth at 0.1 uM; type: functional; settings: read-out: Activity
[29] = test system: Candida albicans; test: Antimicrobial activity against Candida albicans MTCC 227 assessed as growth inhibition measured after overnight incubation by broth dilution method; type: functional
[30] = test system: RXF 393; test: Antitumor activity against human RXF393 cells assessed as cell growth at 0.1 uM; type: functional; settings: read-out: Activity
[31] = test system: SK-MEL-28; test: Antitumor activity against human SK-MEL-28 cells assessed as cell growth at 0.1 uM; type: functional; settings: read-out: Activity
[32] = test system: UO-31; test: Antitumor activity against human UO31 cells assessed as cell growth at 0.1 uM; type: functional; settings: read-out: Activity
[33] = test system: A549; test: Antitumor activity against human A549/ATCC cells assessed as cell growth at 0.1 uM; type: functional; settings: read-out: Activity
[34] = test system: HCT-15; test: Antitumor activity against human HCT15 cells assessed as cell growth at 0.1 uM; type: functional; settings: read-out: Activity
[35] = test system: RPMI-8226; test: Antitumor activity against human RPMI8226 cells assessed as cell growth at 0.1 uM; type: functional; settings: read-out: Activity
[36] = test system: HOP-62; test: Antitumor activity against human HOP62 cells assessed as cell growth at 0.1 uM; type: functional; settings: read-out: Activity
[37] = test system: BT-549; test: Antitumor activity against human BT549 cells assessed as cell growth at 0.1 uM; type: functional; settings: read-out: Activity
[38] = test system: Staphylococcus aureus; test: Antimicrobial activity against Staphylococcus aureus MTCC 96 assessed as growth inhibition measured after overnight incubation by broth dilution method; type: functional
[39] = test system: Escherichia coli; test: Antimicrobial activity against Escherichia coli MTCC 443 assessed as growth inhibition measured after overnight incubation by broth dilution method; type: functional
[40] = Antitumor activity against human Hs 578T cells assessed as cell growth at 0.1 uM; type: functional; settings: read-out: Activity
[41] = test system: NCI-H522; test: Antitumor activity against human NCI-H522 cells assessed as cell growth at 0.1 uM; type: functional; settings: read-out: Activity
[42] = test system: HL-60; test: Antitumor activity against human HL60(TB) cells assessed as cell growth at 0.1 uM; type: functional; settings: read-out: Activity
[43] = test system: LOX IMVI; test: Antitumor activity against human LOXIMVI cells assessed as cell growth at 0.1 uM; type: functional; settings: read-out: Activity
[44] = test system: SF-539; test: Antitumor activity against human SF539 cells assessed as cell growth at 0.1 uM; type: functional; settings: read-out: Activity
[45] = test system: ACHN; test: Antitumor activity against human ACHN cells assessed as cell growth at 0.1 uM; type: functional; settings: read-out: Activity
[46] = Antitumor activity against human EKVX cells assessed as cell growth at 0.1 uM; type: functional; settings: read-out: Activity
[47] = test system: DU-145; test: Antitumor activity against human DU145 cells assessed as cell growth at 0.1 uM; type: functional; settings: read-out: Activity
[48] = test system: NCI-H226; test: Antitumor activity against human NCI-H226 cells assessed as cell growth at 0.1 uM; type: functional; settings: read-out: Activity
[49] = test system: MDA-MB-435; test: Antitumor activity against human MDA-MB-435 cells assessed as cell growth at 0.1 uM; type: functional; settings: read-out: Activity
[50] = test system: MDA-MB-468; test: Antitumor activity against human MDA-MB-468 cells assessed as cell growth at 0.1 uM; type: functional; settings: read-out: Activity
[51] = test system: UACC-62; test: Antitumor activity against human UACC62 cells assessed as cell growth at 0.1 uM; type: functional; settings: read-out: Activity
[52] = test system: SNB-75; test: Antitumor activity against human SNB75 cells assessed as cell growth at 0.1 uM; type: functional; settings: read-out: Activity
[53] = test system: SK-MEL-2; test: cells; settings: Homo sapiens, SK-MEL-2, read-out: Activity
Description: Antitumor activity against human SK-MEL-2 cells assessed as cell growth at 0.1 uM

[54] = test system: K562; test: Antitumor activity against human K562 cells assessed as cell growth at 0.1 uM; type: functional; settings: read-out: Activity
[55] = test system: NCI/ADR-RES; test: Antitumor activity against human NCI/ADR-RES cells assessed as cell growth at 0.1 uM; type: functional; settings: read-out: Activity
[56] = test system: SK-OV-3; test: Antitumor activity against human SKOV3 cells assessed as cell growth at 0.1 uM; type: functional; settings: read-out: Activity
[57] = test system: SW-620; test: Antitumor activity against human SW620 cells assessed as cell growth at 0.1 uM; type: functional; settings: read-out: Activity
[58] = test system: CAKI-1; test: Antitumor activity against human CAKI-1 cells assessed as cell growth at 0.1 uM; type: functional; settings: read-out: Activity
[59] = test system: HT-29; test: Antitumor activity against human HT-29 cells assessed as cell growth at 0.1 uM; type: functional; settings: read-out: Activity
[60] = test system: Streptococcus pyogenes; test: Antimicrobial activity against Streptococcus pyogenes MTCC 442 assessed as growth inhibition measured after overnight incubation by broth dilution method; type: functional
[61] = test system: NCI-H23; test: Antitumor activity against human NCI-H23 cells assessed as cell growth at 0.1 uM; type: functional; settings: read-out: Activity
[62] = test system: Aspergillus clavatus; test: Antimicrobial activity against Aspergillus clavatus MTCC 1323 assessed as growth inhibition measured after overnight incubation by broth dilution method; type: functional
[63] = test system: U-251; test: Antitumor activity against human U251 cells assessed as cell growth at 0.1 uM; type: functional; settings: read-out: Activity

For O=C(CSc1nnc(-c2cccnc2SCc2ccccc2)o1)Nc1nc(Cl)cc(Cl)n1, the growth at 0.1 µM [1] was 99.8%, the growth at 0.1 µM [2] was 94.5% and the growth at 0.1 µM [3] was 96.8%. For the same molecule, the growth at 0.1 µM [4] was 106%, the growth at 0.1 µM [5] was 98.5% and the growth at 0.1 µM [6] was 95.7%. The growth at 0.1 µM [7] was 94%, the MIC [8] was 500 µg/mL (≈ 989 µM) and the growth at 0.1 µM [9] was 109%. The growth at 0.1 µM [10] was 112%, the growth at 0.1 µM [11] was 103% and the growth at 0.1 µM [12] was 102%. For the same molecule, the growth at 0.1 µM [13] was 105%, the growth at 0.1 µM [14] was 106% and the “growth inhibition (GI)” value [15] was 98%. For the same molecule, the MIC [15] was 100 µg/mL (≈ 198 µM), the MIC [16] was 200 µg/mL (≈ 396 µM) and the growth at 0.1 µM [17] was 113%. For the same molecule, the growth at 0.1 µM [18] was 105%, the growth at 0.1 µM [19] was 101% and the growth at 0.1 µM [20] was 101%. For the same molecule, the growth at 0.1 µM [21] was 101%, the growth at 0.1 µM [22] was 92% and the growth at 0.1 µM [23] was 92%. It also gave a growth at 0.1 µM [24] of 92%, a growth at 0.1 µM [25] of 103% and a growth at 0.1 µM [26] of 97.2%. It also gave a growth at 0.1 µM [27] of 106%, a growth at 0.1 µM [28] of 106% and an MIC [29] of 1000 µg/mL (≈ 1980 µM). The growth at 0.1 µM [30] was 105%, the growth at 0.1 µM [31] was 113% and the growth at 0.1 µM [32] was 67.7%. It also gave a growth at 0.1 µM [33] of 104%, a growth at 0.1 µM [34] of 106% and a growth at 0.1 µM [35] of 100%. It also gave a growth at 0.1 µM [36] of 90.6%, a growth at 0.1 µM [37] of 102% and an MIC [38] of 250 µg/mL (≈ 495 µM). For the same molecule, the MIC [39] was 200 µg/mL (≈ 396 µM), the growth at 0.1 µM [40] was 97.4% and the growth at 0.1 µM [41] was 83.1%. The growth at 0.1 µM [42] was 98.3%, the growth at 0.1 µM [43] was 94.9% and the growth at 0.1 µM [44] was 101%. It also gave a growth at 0.1 µM [45] of 103%, a growth at 0.1 µM [46] of 103% and a growth at 0.1 µM [47] of 107%. For the same molecule, the growth at 0.1 µM [48] was 83.7%, the growth at 0.1 µM [49] was 105% and the growth at 0.1 µM [50] was 98.8%. For the same molecule, the growth at 0.1 µM [51] was 101%, the growth at 0.1 µM [52] was 85.7% and the growth at 0.1 µM [53] was 102%. The growth at 0.1 µM [54] was 92.8%, the growth at 0.1 µM [55] was 101% and the growth at 0.1 µM [56] was 110%. It also gave a growth at 0.1 µM [57] of 103%, a growth at 0.1 µM [58] of 95.8% and a growth at 0.1 µM [59] of 110%. It also gave an MIC [60] of 200 µg/mL (≈ 396 µM), a growth at 0.1 µM [61] of 102% and an MIC [62] of 500 µg/mL (≈ 989 µM). It also gave a growth at 0.1 µM [63] of 106%.

In the case of O=C(CSc1nnc(-c2cccnc2SCc2ccccc2)o1)Nn1cnnc1, the MIC [8] was 1000 µg/mL (≈ 2350 µM), the “growth inhibition (GI)” value [15] was 99% and the MIC [15] was 25 µg/mL (≈ 58.8 µM). For the same molecule, the MIC [16] was 125 µg/mL (≈ 294 µM), the MIC [29] was 100 µg/mL (≈ 235 µM) and the MIC [38] was 250 µg/mL (≈ 588 µM). For the same molecule, the MIC [39] was 100 µg/mL (≈ 235 µM), the MIC [60] was 125 µg/mL (≈ 294 µM) and the MIC [62] was 500 µg/mL (≈ 1180 µM).
